Legend:
nitrogenase [1] = target: T1, nitrogenase (Azotobacter vinelandii, UniProt P00459); assay: Chloroplast-coupled reduction of acetylene to ethylene by nitrogenase (electron carrier bioassay of Benemann); assay type: biochemical; conditions: for ACTIVITY RELATIVE TO FERREDOXIN (%) / ACTIVITY (nmoles C2 H4 /mg protein/min): Table I; for ACTIVITY RELATIVE TO FERREDOXIN (%): acetylene reduction to ethylene; for ACTIVITY (nmoles C2 H4 /mg protein/min): illuminated spinach chloroplasts, synthetic carriers 2 mM, clostridial ferredoxin 0.2 mM; for ETHYLENE FORMATION % Ferredoxin Activity: Table III ranking; for % FERREDOXIN ACTIVITY: Table IV, acetylene reduction
T1 construct: the nitrogenase sample was prepared from a culture of Azotobacter vinelandii; endogenous in cells; host or cells: Azotobacter vinelandii culture; French press lysate, 10,000 x g supernatant (crude)
Experimental: The activity of the pyrazinium compounds as electron carriers in an illuminated photocouple process using isolated chloroplasts and the reductive enzyme catalyst nitrogenease has been determined using the bioassay of Benemann, et al., Proc. Natl. Acad. Sci. USA, 64, 1079(1969). In this method, the carrier activity is measured as a function of nitrogenase reduction of acetylene to ethylene, the rate of production of ethylene being the direct measurement.
(§1) For the bioassay, the nitrogenase sample was prepared from a culture of Azotobacter vinelandii grown to a cell density of about 1 g/l. The cells harvested by centrifugation were broken in a French press, cell debris spun off at 10,000 XG for 1 hr., and the supernatant containing 40 mg/ml protein was used in the bioassay experiments. […] chloroplasts from spinach leaves as described by Benemann were also used. The synthetic carriers were tested in aqueous solutions at concentrations of 2 mM, while the standard, clostridial ferredoxin, was used in 0.2 mM aqueous solution. The concentrations of carriers in the assay mixtures were chosen so as to guarantee carrier saturation conditions. Thus, the observed differences in rates of ethylene production from the substrate acetylene were assigned directly to variations in the efficiency of electron transfer from the illuminated chloroplast to the nitrogenase. The results obtained for acetylene reduction (nitrogen fixation) using the pyrazinium compounds of Examples 1 through 42 are summarized in Table I and are expressed as nmoles of ethylene produced per mg protein per minute.

[2] = Polarographic half-wave potential (first wave reduction); assay type: physicochemical; conditions: 0.1 M phosphate buffer pH 7.55, 25° C.
Text: Sci., 65, 1471(1976). Therefore, it was of interest to measure polarographically the half-wave potentials of the several pyrazinium salts under consideration, to determine the possible effect of structure upon their redox potentials.

nitrogenase [3] = target: T1, nitrogenase; assay: Chloroplast-coupled evolution of hydrogen by nitrogenase in the absence of substrate; assay type: biochemical; conditions: Table II, hydrogen evolution; for ACTIVITY (nmoles H2 /mg protein/min): no nitrogen or acetylene, synthetic carriers 2 mM, ferredoxin 0.2 mM
Experimental: as §1
It has been recognized for sometime the connection existing between hydrogen metabolism and nitrogen fixation. […] When nitrogenase was purified extensively, as mentioned above, it became apparent that in addition to nitrogen, nitrogenase also catalyzed the reduction of protons. The evolution of hydrogen is particularly active in the absence of the normal substrates for nitrogenase (nitrogen, acetylene, cyanide, azide, etc.), and is dependent upon a strong reductant and adenosine triphosphate hydrolysis. Since hydrogen evolution is not inhibited by CO, but reduction of nitrogen and other substrates is, the reduction of protons presumably occurs at a site other than the site of nitrogen reduction, H. C. Winter, et. al., Ann Rev. Biochem, 45, 409 (1976). Accordingly, with the same bioassay system and with exclusion of nitrogen, and acetylene, the activity of the pyrazinium compounds to act as carriers for production of hydrogen has been determined.
The results of this study, which are summarized in Table II, indicate that the pyrazinium salts that mediate the reduction of acetylene with electrons from the photoexcited chloroplast, are also mediating the reduction of protons by the nitrogenase.

[4] = cited from earlier work

T1 sequence (P00459 2-290 limits assumed): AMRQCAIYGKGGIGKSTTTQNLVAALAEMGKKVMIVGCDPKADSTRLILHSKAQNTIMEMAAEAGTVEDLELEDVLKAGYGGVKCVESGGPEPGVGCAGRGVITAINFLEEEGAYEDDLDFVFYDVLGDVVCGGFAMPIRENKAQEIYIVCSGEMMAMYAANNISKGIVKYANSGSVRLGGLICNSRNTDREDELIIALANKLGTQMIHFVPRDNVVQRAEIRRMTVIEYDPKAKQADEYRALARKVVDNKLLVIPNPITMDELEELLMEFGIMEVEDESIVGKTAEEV

| ACTIVITY RELATIVE TO FERREDOXIN (%) (nitrogenase [1]) | ACTIVITY (nmoles C2 H4 /mg protein/min) (nitrogenase [1]) | ETHYLENE FORMATION % Ferredoxin Activity (nitrogenase [1]) | % FERREDOXIN ACTIVITY (nitrogenase [1]) | E1/2 vs. SCE (mV) [2] | ACTIVITY RELATIVE TO FERREDOXIN (%) (nitrogenase [3]) | ACTIVITY (nmoles H2 /mg protein/min) (nitrogenase [3]) | Molecule | midpoint potential ([4]; natural electron carriers for the nitrogenase) | half-wave potential ([4]; pH 7.52) |
| --- | --- | --- | --- | --- | --- | --- | --- | --- | --- |
| 20% | 2.7 nmoles C2 H4 /mg protein/min | 20% | 20% | -680 mV | 111% | 29.7 nmoles H2 /mg protein/min | CCC(O)Cc1c[n+](C)ccn1.[I-] (stereo not drawn) [Compound 3400, 1-Methyl-3-(2-hydroxybutyl)pyrazinium iodide] | – | – |
| 5% | 0.7 nmoles C2 H4 /mg protein/min | 5% | 5% | -575 mV | 19% | 5.0 nmoles H2 /mg protein/min | CCC(=O)Cc1c[n+](C)ccn1 [Compound 3500, 1-Methyl-3-(2-oxybutyl)pyrazinium iodide] | – | – |
| 28% | 3.8 nmoles C2 H4 /mg protein/min | 28% | 28% | -685 mV | 36% | 9.5 nmoles H2 /mg protein/min | C[n+]1ccnc(CCC(N)=O)c1 [Compound 4000, 1-Methyl-3-(2-carboxamidoethyl)pyrazinium iodide] | – | – |
| 5% | 0.7 nmoles C2 H4 /mg protein/min | 5% | 5% | -696 mV | 14% | 3.7 nmoles H2 /mg protein/min | Cc1c[n+](C)ccn1 [Compound 4300] | – | – |
| 5% | 0.7 nmoles C2 H4 /mg protein/min | 5% | 5% | -611 mV | 5% | 1.4 nmoles H2 /mg protein/min | C[n+]1ccnc(CS(C)(=O)=O)c1 [Compound 4700] | – | – |
| 2% | 0.3 nmoles C2 H4 /mg protein/min | 2% | 2% | -700 mV | 8% | 2.2 nmoles H2 /mg protein/min | CCc1c[n+](C)ccn1 [Compound 4900] | – | – |

More lines, now with the values behind:

| Molecule | ACTIVITY RELATIVE TO FERREDOXIN (%) (nitrogenase [1]) | ACTIVITY (nmoles C2 H4 /mg protein/min) (nitrogenase [1]) | ETHYLENE FORMATION % Ferredoxin Activity (nitrogenase [1]) | % FERREDOXIN ACTIVITY (nitrogenase [1]) | E1/2 vs. SCE (mV) [2] | ACTIVITY RELATIVE TO FERREDOXIN (%) (nitrogenase [3]) | ACTIVITY (nmoles H2 /mg protein/min) (nitrogenase [3]) | midpoint potential ([4]; natural electron carriers for the nitrogenase) | half-wave potential ([4]; pH 7.52) |
| --- | --- | --- | --- | --- | --- | --- | --- | --- | --- |
| C[n+]1ccnc(CS(=O)(=O)[O-])c1 [Compound 2800] | 61% | 8.3 nmoles C2 H4 /mg protein/min | 61% | 61% | -690 mV | 140% | 37.3 nmoles H2 /mg protein/min | – | – |
| Cc1c[n+](C)cc(CS(=O)(=O)[O-])n1 [Compound 3000] | 99% | 13.4 nmoles C2 H4 /mg protein/min | 99% | 99% | -738 mV | 124% | 33.1 nmoles H2 /mg protein/min | – | – |
| Cc1cnc(CS(=O)(=O)[O-])c[n+]1C [Compound 3200] | 98% | 13.3 nmoles C2 H4 /mg protein/min | 98% | 98% | -673 mV | 161% | 43.1 nmoles H2 /mg protein/min | – | – |
| C[n+]1ccnc(C(C)(C)[N+](=O)[O-])c1.[I-] [Compound 3700, 1-Methyl-3-(1-nitroisopropyl)pyrazinium iodide] | 31% | 4.2 nmoles C2 H4 /mg protein/min | 31% | 31% | -701 mV | 32% | 8.6 nmoles H2 /mg protein/min | – | – |
| CC(=O)NCCc1c[n+](C)ccn1.[I-] [Compound 3800, 1-Methyl-3-(2-acetamidoethyl)pyrazinium iodide] | 15% | 2.0 nmoles C2 H4 /mg protein/min | 15% | 15% | -681 mV | 22% | 5.8 nmoles H2 /mg protein/min | – | – |
| COC(=O)CCc1c[n+](C)ccn1.[I-] [Compound 3901, 1-methyl-3-(2-carbomethoxyethyl)pyrazinium iodide] | 22% | 3.0 nmoles C2 H4 /mg protein/min | 22% | 22% | -685 mV | 26% | 6.9 nmoles H2 /mg protein/min | – | – |
| C[n+]1ccnc(CC(C(O)CO)S(=O)(=O)[O-])c1 (stereo not drawn) [Compound 4100] | 110% | 14.8 nmoles C2 H4 /mg protein/min | 110% | 110% | -720 mV | 73% | 19.4 nmoles H2 /mg protein/min | – | – |
| C[n+]1ccnc(C(=O)O)c1 [Compound 4400] | 0% | 0.0 nmoles C2 H4 /mg protein/min | 0% | 0% | -613 mV | 0% | 0.0 nmoles H2 /mg protein/min | – | – |
| COC(=O)c1c[n+](C)ccn1 [Compound 4500] | 0% | 0.0 nmoles C2 H4 /mg protein/min | 0% | 0% | -390 mV | 0% | 0.0 nmoles H2 /mg protein/min | – | – |
| C[n+]1ccnc(C(N)=O)c1 [Compound 4600] | 0% | 0.0 nmoles C2 H4 /mg protein/min | 0% | 0% | -479 mV | 0% | 0.0 nmoles H2 /mg protein/min | – | – |
| CCCCc1c[n+](C)ccn1 [Compound 5000] | 0% | 0.0 nmoles C2 H4 /mg protein/min | 0% | 0% | -676 mV | 0% | 0.0 nmoles H2 /mg protein/min | – | – |
| C[n+]1ccnc2ccccc21 [Compound 5200] | 0% | 0.0 nmoles C2 H4 /mg protein/min | 0% | 0% | -433 mV | 0% | 0.0 nmoles H2 /mg protein/min | – | – |
| Clostridial Ferredoxin: the standard, clostridial ferredoxin; natural protein electron carrier, used in 0.2 mM aqueous solution (AYKIADSCVSCGACASECPVNAISQGDSIFVIDADTCIDCGNCANVCPVGAPVQE; UniProt P00195 2-56, looked up) [reference compound] | 100% | 13.5 nmoles C2 H4 /mg protein/min | 100% | 100% | -570 mV | 100% | 26.7 nmoles H2 /mg protein/min | -570 mV | -570 mV |

Source: patent US4638005A, “Monoquaternized pyrazinium compounds and their use as electron carriers in photosynthetic processes” (The Coca-Cola Company, priority 1983, dated 1987)
